Laboratory results reported in patent US10226467B2, “Compounds for the treatment of myotonic dystrophy” (UNIVERSITAT DE VALÈNCIA, priority 2014, dated 2019).

Tests used:
[1] = system: 6-FAM-(CUG)23 probe (CUG repeats RNA); conditions: positive control, Warf et al. 2009; cited from earlier work
MBNL1 in DM1 myoblasts = experiment: Quantification of Mbl expression or localization (anti-MBNL1 immunodetection); type: cell-based, human; conditions: FIG. 6, at 1 microM, one day, versus DMSO
Protocol: Immortalized transdifferentiated DM1 fibroblasts were seeded in a […] (8000 cell/per well) in standard media. To achieve the differentiation of the fibroblast to myoblasts, we induced MyoD expression by changing the standard media to differentiation media with Doxocycline and without serum. 24 h after induction, the compounds were added the cells at different concentrations, always maintaining the concentration of the solvent (DMSO) at 1% in the media. Every concentration of compound was tested in three different wells. 24 h after adding the compounds the cells were fixed with paraformaldehyde 4% in PBS and Mbl detection using monoclonal anti-MBNL1 antibody was performed counterstaining with Hoechst to detect the nuclei. Incell 200 plate reader confocal was used for detection and quantification of the parameters selected and the data was analyzed using Graphpad software for statistical comparison of results.

[2] = system: 6-FAM-(CUG)23 probe (CUG repeats RNA); experiment: Fluorescence polarization assay of binding to CUG repeat RNA; conditions: FIG. 2; increasing concentrations; compared to a control compound that does not bind CUG repeats
Protocol: This was assessed in fluorescence polarization spectroscopy experiments. In these tests, when polarized light excites a fluorophore conjugated to a small molecule, it undergoes rotational diffusion faster than the time required for light emission occurs, resulting in a random arrangement of the molecule in the fluorescence emission time (depolarization). However, the rotation of the molecule becomes slower depending on the viscosity of the medium or the molecular volume, increasing the polarization of the emitted light. Thus, by measuring changes in polarization of an RNA with 23 CUG repeats conjugated to the fluorophore carboxyfluorescein, FAM (CUG) 23, we can consider whether a candidate molecule binds to the RNA.
Fluorescent CUG RNA (carboxyfluorescein (6-FAM)-labeled) was incubated with increasing concentrations of example compounds. […]
Carboxyfluorescein-labeled CUG RNA (6-FAM-CUG23) at 6 nM was incubated with the compounds at different concentrations in binding buffer (50 mM Tris-HCl pH 7.0, 250 mM NaCl, 50 μM ZnCl2, 10% glycerol, 1 mM DTT) on ice for 20 min in the dark. Polarization was measured in an EnVision® Multilabel Reader using as excitation filter FP480 and as emission filter FP535.

[3] = system: ribonuclear foci in DM1 fibroblasts; experiment: Ribonuclear foci per cell (in situ hybridization of CUG repeat RNA); type: cell-based, human; conditions: FIG. 4, versus DMSO
From the text: Its reduction is typically used as evidence of desired activity against myotonic dystrophy in cell culture models because MBNL proteins are sequestered in ribonuclear foci. Since MBNL proteins are limiting in myotonic dystrophies an increase in free MBNLs is expected to be therapeutic. • Evidences from Human Myoblasts:
Cell model of the disease (provided by the D. Furling's laboratory, Institute of Myologie, Paris) consisted of normal and DM1 (1300 CTG repeats) immortalized (hTERT) skin fibroblasts expressing conditional MyoD. Fibroblast cells were grown in Dulbecco's Modified Eagle Medium (DMEM) with 4.5 g/L of glucose, 1% of penicillin and streptomycin (P/S) and 10% foetal bovine serum (FBS) (Sigma). Fibroblasts were transdifferentiated in myoblasts by inducing expression of MyoD. […]
In situ hybridization with CUG repeat RNA. […] Images were taken using a Leica DM2500 fluorescence microscope and foci were manually counted from at least 50 cells per compound.
DM1 fibroblasts were seeded in a […] (8000 cell/per well) in standard media one day before adding the compounds to the media. […] Incell 200 plate reader confocal was used for detection and quantification of the parameters selected and the data was analyzed using Graphpad software for statistical comparison of results.

Row | Compound | Mbl staining intensity in nuclei (MBNL1 in DM1 myoblasts) | further results
1 | N=C(N)c1ccc(OCCCCCOc2ccc(C(=N)N)cc2)cc1 [pentamidine] | – | binding to CUG repeats (previously shown) [1]: attached to the CUG repeats
2 | Cn1c(=O)[nH]c(=O)c2[nH]cnc21 [Compound 8, 3-Methylxanthine] | increase significantly | –
3 | Cn1c(=O)c2c(ncn2CCCCCCCCCn2cnc3c2c(=O)n(C)c(=O)n3C)n(C)c1=O [Theophylline-C9] | – | binding to CUG repeats (polarization of 6-FAM-(CUG)23 probe relative to probe alone) [2]: very strong bond; mean number of ribonuclear foci per cell [3]: significantly decreased
4 | Cn1c(=O)c2c(ncn2CCCCCCCn2cnc3c2c(=O)n(C)c(=O)n3C)n(C)c1=O [Theophylline-C7] | – | mean number of ribonuclear foci per cell [3]: significantly decreased
5 | Cn1c(=O)[nH]c2ncn(C)c2c1=O [Compound 6, 1,7-Dimethylxanthine] | increase significantly | –
6 | CCCn1c(=O)c2[nH]cnc2n(CC)c1=O [Compound 9, 3-Ethyl-1-propylxanthine] | increase significantly | –
7 | CC(C)Cn1c(=O)n(C)c(=O)c2[nH]cnc21 [Compound 7, 3-Isobutyl-1-methylxanthine] | increase significantly | –
